Data taken from patent US12012408B2, “Purine compounds and method for the treatment of cancer” (THE ROYAL INSTITUTION FOR THE ADVANCEMENT OF …, priority 2018, dated 2024).

Columns and labels:
[1] = tested on: MDA-MB-231 and BT-20 cells; assay: MTT assay (short-term cell viability); assay type: cell-based; conditions: time-dependent, SLLN-15 compared with vorinostat; FIG. 6A
Procedure: The short-term effects of SLLN-15 on tumor cell growth were assessed using the 3-(4,5-dimethylthiazol-2-yl)-2,5-diphenylte-trazolium bromide (MTT; Sigma) assay. Cells were seeded at a density of 5000 cells/well in a 96-well plate and treated with SLLN-15 as indicated concentration or DMSO for 24 hours. MTT solution (5 mg/ml in RPMI 1640 medium) was added (20 μl/well), and plates were incubated for 4 hours in dark at 37° C., then the purple formazan crystals were then dissolved in 100 μl MTT solvent (4 mM HCl and 0.1% NP-40 in isopropanol). The plates were read on FLUOstar OPTIMA microplate reader (BMG Labtech, Ortenberg, Germany) at 570 nm. Assays were performed in triplicate on three independent experiments.

[2] = tested on: cleaved-PARP, cleaved-caspase 3, Bcl-2 in MDA-MB-231 and BT-20 cells; assay: Western blot of indicators of apoptosis; assay type: cell-based; conditions: FIG. 6B
Procedure: Sub-confluent cells were washed with PBS, lysed in RIPA buffer (50 mM Tris-HCl at pH7.5, 150 mM sodium chloride, 1% tritonX-100, 0.1% SDS, 2 mM EDTA and 25 mM sodium fluoride) supplemented with 1 mM PMSF and protease inhibitor cocktail (Roche) for 10 min on ice and centrifuged (13,000 rpm at 4° C. for 20 min) to separate cell lysate. Cell lysate (50 μg protein, as measured by the Bradford protein assay) was then added with SDS sample buffer (Tris at pH 6.8, 20% glycerol, 5% SDS, bromophenol blue and β-mercaptoethanol) and boiled for 5 min. Samples were then resolved through 13% SDS-PAGE gels, transferred to nitrocellulose membrane, blotted with specific first antibodies at different dilution in cold room overnight, and then amplified with horseradish peroxidase-conjugated secondary antibodies for 1 hour in room temperature and enhanced by chemiluminescence detection system.
Considering apoptosis is the major form of cell death induced by chemotherapeutic agent, we seek to identify whether the anticancer effect of SLLN-15 was mediated via apoptosis in breast cancer cells.

`O=C(CCCCCCC(=O)Nc1ccccc1)NO` [vorinostat, suberoylanilide hydroxamic acid, reference compound] was tested. Which “cell viability (MTT)” value [1] did it give?
The value was “markedly decreased cell viability”.

What about the “indicators of apoptosis: upregulation of cleaved-PARP and cleaved-caspase 3, downregulation of Bcl-2” value [2] of the same compound?
Its value is “only detected in vorinostat treated cells”.
